Converted amounts (≈) assume the structure as drawn.
Columns and labels:
Assay type in all cases: functional
Aspergillus fumigatus [1] = assay: Antifungal activity against Aspergillus fumigatus isolate by broth microdilution method
Aspergillus fumigatus [2] = assay: Antifungal activity against itraconazole-resistant Aspergillus fumigatus isolate by broth microdilution method
Aspergillus fumigatus [3] = assay: Antifungal activity against voriconalzole-resistant Aspergillus fumigatus isolate by broth microdilution method

C[C@@H](c1ncncc1F)[C@](O)(Cn1cncn1)c1ccc(F)cc1F [VORICONAZOLE]
MIC50 (Aspergillus fumigatus [1]): 0.25 µg/mL (≈ 0.716 µM) | MIC90 (Aspergillus fumigatus [1]): 0.5 µg/mL (≈ 1.43 µM) | MIC (Aspergillus fumigatus [2]): 4 µg/mL (≈ 11.5 µM)

C[C@@H]1[C@H](O)[C@@H](C)/C=C/C=C/C=C/C=C/C=C/C=C/C=C/[C@H](O[C@@H]2O[C@H](C)[C@@H](O)[C@H](N)[C@@H]2O)C[C@@H]2O[C@](O)(C[C@@H](O)C[C@@H](O)[C@H](O)CC[C@@H](O)C[C@@H](O)CC(=O)O[C@H]1C)C[C@H](O)[C@H]2C(=O)O [AMPHOTERICIN B]
MIC50 (Aspergillus fumigatus [1]): 2 µg/mL (≈ 2.16 µM) | MIC90 (Aspergillus fumigatus [1]): 2 µg/mL (≈ 2.16 µM)

CCC(C)n1ncn(-c2ccc(N3CCN(c4ccc(OCC5COC(Cn6cncn6)(c6ccc(Cl)cc6Cl)O5)cc4)CC3)cc2)c1=O (stereo not drawn) [ITRACONAZOLE]
MIC50 (Aspergillus fumigatus [1]): 0.5 µg/mL (≈ 0.709 µM) | MIC90 (Aspergillus fumigatus [1]): 0.5 µg/mL (≈ 0.709 µM) | MIC (Aspergillus fumigatus [3]): > 16 µg/mL
